ChEMBL document CHEMBL5634099, “Pyrrole-thiazolidinone hybrids as a new structural class of broad-spectrum anti-infectives” (Eur J Med Chem, 2023)
Values after ≈ are worked out from the molar mass of the structure shown.

Assays:
Type in all cases: functional
Staphylococcus aureus [1] = test: Antibacterial activity against vancomycin-resistant Staphylococcus aureus VRS 4 clinical isolate assessed as bacterial growth inhibition incubated for 16 to 18 hrs by CLSI based susceptibility testing method; conditions: time 16-18 hrs
Staphylococcus aureus [2] = test: Antibacterial activity against vancomycin-resistant Staphylococcus aureus VRS 1 clinical isolate assessed as bacterial growth inhibition incubated for 16 to 18 hrs by CLSI based susceptibility testing method; conditions: time 16-18 hrs
Staphylococcus aureus [3] = test: Antibiofilm activity against Staphylococcus aureus ATCC 29213 assessed as reduction in biofilm formation at 10 times MIC incubated for 24 hrs by absorbance based assay relative to control; design: scale not given: the % may be the effect or the level left
Staphylococcus aureus [4] = test: Antibacterial activity against vancomycin-resistant Staphylococcus aureus VRS 12 clinical isolate assessed as bacterial growth inhibition incubated for 16 to 18 hrs by CLSI based susceptibility testing method; conditions: time 16-18 hrs
Klebsiella pneumoniae = test: Antibacterial activity against Klebsiella pneumoniae BAA 1705 assessed as bacterial growth inhibition incubated for 16 to 18 hrs by CLSI based susceptibility testing method; conditions: time 16-18 hrs
Staphylococcus aureus [5] = test: Antibacterial activity against methicillin-resistant Staphylococcus aureus NR 198 clinical isolate assessed as bacterial growth inhibition incubated for 16 to 18 hrs by CLSI based susceptibility testing method; conditions: time 16-18 hrs
Staphylococcus aureus [6] = test: Antibacterial activity against Staphylococcus aureus ATCC 29213 assessed as bacterial growth inhibition incubated for 16 to 18 hrs by CLSI based susceptibility testing method; conditions: time 16-18 hrs
Staphylococcus aureus [7] = test: Antibacterial activity against methicillin-resistant Staphylococcus aureus NR 192 clinical isolate assessed as bacterial growth inhibition incubated for 16 to 18 hrs by CLSI based susceptibility testing method; conditions: time 16-18 hrs
Staphylococcus aureus [8] = test: Antibacterial activity against methicillin-resistant Staphylococcus aureus NR 191 clinical isolate assessed as bacterial growth inhibition incubated for 16 to 18 hrs by CLSI based susceptibility testing method; conditions: time 16-18 hrs
Staphylococcus aureus [9] = test: Antibacterial activity against methicillin-resistant Staphylococcus aureus NR 119 clinical isolate assessed as bacterial growth inhibition incubated for 16 to 18 hrs by CLSI based susceptibility testing method; conditions: time 16-18 hrs
Staphylococcus aureus [10] = test: Antibacterial activity against methicillin-resistant Staphylococcus aureus NR 129 clinical isolate assessed as bacterial growth inhibition incubated for 16 to 18 hrs by CLSI based susceptibility testing method; conditions: time 16-18 hrs
Staphylococcus aureus [11] = test: Antibacterial activity against methicillin-resistant Staphylococcus aureus NR 186 clinical isolate assessed as bacterial growth inhibition incubated for 16 to 18 hrs by CLSI based susceptibility testing method; conditions: time 16-18 hrs
Staphylococcus aureus [12] = test: Antibacterial activity against methicillin-resistant Staphylococcus aureus NR 194 clinical isolate assessed as bacterial growth inhibition incubated for 16 to 18 hrs by CLSI based susceptibility testing method; conditions: time 16-18 hrs
Staphylococcus aureus [13] = test: Antibacterial activity against methicillin-resistant Staphylococcus aureus NR 193 clinical isolate assessed as bacterial growth inhibition incubated for 16 to 18 hrs by CLSI based susceptibility testing method; conditions: time 16-18 hrs
Staphylococcus aureus [14] = test: Antibacterial activity against methicillin-sensitive Staphylococcus aureus ATCC 29213 clinical isolate assessed as bacterial growth inhibition incubated for 16 to 18 hrs by CLSI based susceptibility testing method; conditions: time 16-18 hrs
Staphylococcus aureus [15] = test: Antibacterial activity against methicillin-resistant Staphylococcus aureus NR 100 clinical isolate assessed as bacterial growth inhibition incubated for 16 to 18 hrs by CLSI based susceptibility testing method; conditions: time 16-18 hrs
[16] = system: Mycobacterium tuberculosis; test: Antimycobacterial activity against Mycobacterium tuberculosis H37Rv ATCC 27294 assessed as bacterial growth inhibition incubated for 7 days by resazurin dye based assay; conditions: H37Rv ATCC 27294, 168 h, time 7 day
Escherichia coli = test: Antibacterial activity against Escherichia coli ATCC 25922 assessed as bacterial growth inhibition incubated for 16 to 18 hrs by CLSI based susceptibility testing method; conditions: time 16-18 hrs
Pseudomonas aeruginosa = test: Antibacterial activity against Pseudomonas aeruginosa ATCC 27853 assessed as bacterial growth inhibition incubated for 16 to 18 hrs by CLSI based susceptibility testing method; conditions: time 16-18 hrs
[17] = system: Mycobacteroides abscessus; test: Antimycobacterial activity against Mycobacterium abscessus ATCC 19977 assessed as bacterial growth inhibition incubated for 7 days by resazurin dye based assay; conditions: ATCC 19977, 168 h, time 7 day
Mycobacteroides chelonae = test: Antimycobacterial activity against Mycobacteroides chelonae ATCC 35752 assessed as bacterial growth inhibition incubated for 7 days by resazurin dye based assay; conditions: ATCC 35752, 168 h, time 7 day
Acinetobacter baumannii = test: Antibacterial activity against Acinetobacter baumannii BAA 1605 assessed as bacterial growth inhibition incubated for 16 to 18 hrs by CLSI based susceptibility testing method; conditions: time 16-18 hrs
[18] = system: Mycolicibacterium fortuitum; test: Antimycobacterial activity against Mycobacterium fortuitum ATCC 6841 assessed as bacterial growth inhibition incubated for 7 days by resazurin dye based assay; conditions: ATCC 6841, 168 h, time 7 day

Structure (SMILES) | MIC (Klebsiella pneumoniae) [µg/mL] | MIC (Staphylococcus aureus [6]) [µg/mL] | MIC [16] [µg/mL] | MIC (Escherichia coli) [µg/mL] | MIC (Pseudomonas aeruginosa) [µg/mL] | MIC [17] [µg/mL] | MIC (Mycobacteroides chelonae) [µg/mL] | MIC (Acinetobacter baumannii) [µg/mL] | MIC [18] [µg/mL] | also measured
CN[C@H](CC(C)C)C(=O)N[C@H]1C(=O)N[C@@H](CC(N)=O)C(=O)N[C@H]2C(=O)N[C@H]3C(=O)N[C@H](C(=O)N[C@H](C(=O)O)c4cc(O)cc(O)c4-c4cc3ccc4O)[C@H](O)c3ccc(c(Cl)c3)Oc3cc2cc(c3O[C@@H]2O[C@H](CO)[C@@H](O)[C@H](O)[C@H]2O[C@H]2C[C@](C)(N)[C@H](O)[C@H](C)O2)Oc2ccc(cc2Cl)[C@H]1O [VANCOMYCIN] |  |  |  |  |  |  |  |  |  | MIC (Staphylococcus aureus [1]): > 64 µg/mL; MIC (Staphylococcus aureus [2]): > 64 µg/mL; Activity (Staphylococcus aureus [3]): 7.7%; MIC (Staphylococcus aureus [4]): > 64 µg/mL
C[C@H]1COc2c(N3CCN(C)CC3)c(F)cc3c(=O)c(C(=O)O)cn1c23 [LEVOFLOXACIN ANHYDROUS] | 64 (≈ 177 µM) | 0.25 (≈ 0.692 µM) |  |  |  |  |  |  |  | MIC (Staphylococcus aureus [1]): > 64 µg/mL; MIC (Staphylococcus aureus [2]): 32 µg/mL (≈ 88.6 µM); MIC (Staphylococcus aureus [5]): 32 µg/mL (≈ 88.6 µM); MIC (Staphylococcus aureus [7]): 8 µg/mL (≈ 22.1 µM); Activity (Staphylococcus aureus [3]): 10%; MIC (Staphylococcus aureus [8]): 16 µg/mL (≈ 44.3 µM); MIC (Staphylococcus aureus [9]): 16 µg/mL (≈ 44.3 µM); MIC (Staphylococcus aureus [10]): 0.25 µg/mL (≈ 0.692 µM); MIC (Staphylococcus aureus [11]): 4 µg/mL (≈ 11.1 µM); MIC (Staphylococcus aureus [12]): 0.125 µg/mL (≈ 0.346 µM); MIC (Staphylococcus aureus [13]): 32 µg/mL (≈ 88.6 µM); MIC (Staphylococcus aureus [4]): 32 µg/mL (≈ 88.6 µM); MIC (Staphylococcus aureus [14]): 0.25 µg/mL (≈ 0.692 µM); MIC (Staphylococcus aureus [15]): 0.25 µg/mL (≈ 0.692 µM)
Cc1cc(/C=C2\S/C(=N/c3nccs3)NC2=O)c(C)n1-c1cccc(F)c1 | > 64 | 1 (≈ 2.51 µM) | 8 (≈ 20.1 µM) | > 64 | > 64 | > 64 | > 64 | > 64 | > 64 | 
COc1cccc(OC)c1C(=O)N[C@@H]1C(=O)N2[C@@H]1SC(C)(C)[C@@H]2C(=O)O [METHICILLIN] |  |  |  |  |  |  |  |  |  | MIC (Staphylococcus aureus [1]): > 64 µg/mL; MIC (Staphylococcus aureus [2]): > 64 µg/mL; MIC (Staphylococcus aureus [5]): > 64 µg/mL; MIC (Staphylococcus aureus [7]): > 64 µg/mL; MIC (Staphylococcus aureus [8]): > 64 µg/mL; MIC (Staphylococcus aureus [9]): > 64 µg/mL; MIC (Staphylococcus aureus [10]): 32 µg/mL (≈ 84.1 µM); MIC (Staphylococcus aureus [11]): 64 µg/mL (≈ 168 µM); MIC (Staphylococcus aureus [12]): 32 µg/mL (≈ 84.1 µM); MIC (Staphylococcus aureus [13]): > 64 µg/mL; MIC (Staphylococcus aureus [4]): > 64 µg/mL; MIC (Staphylococcus aureus [14]): 1 µg/mL (≈ 2.63 µM); MIC (Staphylococcus aureus [15]): > 64 µg/mL
Cc1nc(/N=C2\NC(=O)/C(=C/c3cc(C)n(-c4ccc(Cl)cc4)c3C)S2)sc1C | > 64 | > 64 | > 64 | > 64 | > 64 | > 64 | > 64 | > 64 | > 64 | 
Cc1nc(/N=C2\NC(=O)/C(=C/c3cc(C)n(-c4ccccc4O)c3C)S2)sc1C | > 64 | > 64 | > 64 | > 64 | > 64 | > 64 | > 64 | > 64 | > 64 | 
Cc1cc(/C=C2\S/C(=N/c3nccs3)NC2=O)c(C)n1-c1ccc(N2CCOCC2)cc1 | > 64 | 16 (≈ 34.4 µM) | 4 (≈ 8.59 µM) | > 64 | > 64 | > 64 | > 64 | > 64 | > 64 | 
COc1cccc(-n2c(C)cc(/C=C3\S/C(=N/c4nccs4)NC3=O)c2C)c1 | > 64 | 64 (≈ 156 µM) | > 64 | > 64 | > 64 | > 64 | > 64 | > 64 | > 64 | 
Cc1nc(/N=C2\NC(=O)/C(=C/c3cc(C)n(-c4ccc(C#N)c(Cl)c4)c3C)S2)sc1C | > 64 | > 64 | > 64 | > 64 | > 64 | > 64 | > 64 | > 64 | > 64 | 
C[C@@H](O)[C@H]1C(=O)N2C(C(=O)O)=C(S[C@@H]3CN[C@H](C(=O)N(C)C)C3)[C@H](C)[C@H]12 [MEROPENEM] |  |  |  |  |  |  |  |  |  | MIC (Staphylococcus aureus [1]): 32 µg/mL (≈ 83.4 µM); MIC (Staphylococcus aureus [2]): 64 µg/mL (≈ 167 µM); MIC (Staphylococcus aureus [5]): 32 µg/mL (≈ 83.4 µM); MIC (Staphylococcus aureus [7]): 8 µg/mL (≈ 20.9 µM); MIC (Staphylococcus aureus [8]): 32 µg/mL (≈ 83.4 µM); MIC (Staphylococcus aureus [9]): 64 µg/mL (≈ 167 µM); MIC (Staphylococcus aureus [10]): 2 µg/mL (≈ 5.22 µM); MIC (Staphylococcus aureus [11]): 4 µg/mL (≈ 10.4 µM); MIC (Staphylococcus aureus [12]): 1 µg/mL (≈ 2.61 µM); MIC (Staphylococcus aureus [13]): 64 µg/mL (≈ 167 µM); MIC (Staphylococcus aureus [4]): 4 µg/mL (≈ 10.4 µM); MIC (Staphylococcus aureus [14]): 0.125 µg/mL (≈ 0.326 µM); MIC (Staphylococcus aureus [15]): 32 µg/mL (≈ 83.4 µM)
COc1ccc(-n2c(C)cc(/C=C3\S/C(=N/c4nccs4)NC3=O)c2C)cc1OC | > 64 | 4 (≈ 9.08 µM) | 8 (≈ 18.2 µM) | > 64 | > 64 | > 64 | > 64 | > 64 | > 64 | 
COc1cccc(-n2c(C)cc(/C=C3\S/C(=N/c4nc(C)c(C)s4)NC3=O)c2C)c1 | > 64 | > 64 | 2 (≈ 4.56 µM) | > 64 | > 64 | > 64 | > 64 | > 64 | > 64 | 
Cc1nc(/N=C2\NC(=O)/C(=C/c3cc(C)n(-c4ccc(N5CCOCC5)cc4)c3C)S2)sc1C | > 64 | 64 (≈ 130 µM) | > 64 | > 64 | > 64 | > 64 | > 64 | > 64 | > 64 | 
Cc1nc(/N=C2\NC(=O)/C(=C/c3cc(C)n(-c4cc(Cl)ccc4O)c3C)S2)sc1C | > 64 | 64 (≈ 139 µM) | > 64 | > 64 | > 64 | > 64 | > 64 | > 64 | > 64 | 
